Assay results reported in ChEMBL document CHEMBL5723585, “Data for DCP probe JNJ-54082730” (2024).

What was measured:
[1] = biological target: Neurotensin receptor type 1 (Homo sapiens) (UniProt P30989); assay: NTS1 (NT1) Eurofins-Cerep binding assay; design: ligand concentration 0.05 nM; conditions: filed as agonist, Compound concentration 10.0 uM
[2] = biological target: Vasoactive intestinal polypeptide receptor 1 (Homo sapiens) (UniProt P32241); assay: VPAC1 (VIP1) Eurofins-Cerep binding assay; design: ligand concentration 0.04 nM; conditions: filed as agonist, Compound concentration 10.0 uM
Vasoactive intestinal polypeptide receptor 1 (Homo sapiens), sequence (P32241 whole entry): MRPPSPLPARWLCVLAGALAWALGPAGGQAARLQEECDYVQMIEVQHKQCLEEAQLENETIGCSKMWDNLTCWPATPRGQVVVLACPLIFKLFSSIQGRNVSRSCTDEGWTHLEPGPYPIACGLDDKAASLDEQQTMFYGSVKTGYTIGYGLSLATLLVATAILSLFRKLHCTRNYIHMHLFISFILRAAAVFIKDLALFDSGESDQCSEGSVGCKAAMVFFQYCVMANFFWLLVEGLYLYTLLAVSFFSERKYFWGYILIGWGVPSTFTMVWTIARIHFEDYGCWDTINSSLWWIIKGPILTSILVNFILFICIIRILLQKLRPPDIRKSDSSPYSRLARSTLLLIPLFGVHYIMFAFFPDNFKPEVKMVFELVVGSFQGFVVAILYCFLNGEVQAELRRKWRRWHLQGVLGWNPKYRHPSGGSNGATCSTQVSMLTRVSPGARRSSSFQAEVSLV

[3] = biological target: 5-hydroxytryptamine receptor 5A (Homo sapiens) (UniProt P47898); assay: 5-HT5a Eurofins-Cerep binding assay; design: ligand concentration 1.5 nM; conditions: filed as agonist, Compound concentration 10.0 uM
Rattus norvegicus [4] = species: Rattus norvegicus; assay: KV channel Eurofins-Cerep binding assay; design: ligand concentration 0.01 nM; conditions: filed as antagonist, Compound concentration 10.0 uM
[5] = biological target: 5-hydroxytryptamine receptor 3A (Homo sapiens) (UniProt P46098); assay: 5-HT3 Eurofins-Cerep binding assay; design: ligand concentration 0.5 nM; conditions: filed as antagonist, Compound concentration 10.0 uM
5-hydroxytryptamine receptor 3A (Homo sapiens), sequence (P46098 whole entry): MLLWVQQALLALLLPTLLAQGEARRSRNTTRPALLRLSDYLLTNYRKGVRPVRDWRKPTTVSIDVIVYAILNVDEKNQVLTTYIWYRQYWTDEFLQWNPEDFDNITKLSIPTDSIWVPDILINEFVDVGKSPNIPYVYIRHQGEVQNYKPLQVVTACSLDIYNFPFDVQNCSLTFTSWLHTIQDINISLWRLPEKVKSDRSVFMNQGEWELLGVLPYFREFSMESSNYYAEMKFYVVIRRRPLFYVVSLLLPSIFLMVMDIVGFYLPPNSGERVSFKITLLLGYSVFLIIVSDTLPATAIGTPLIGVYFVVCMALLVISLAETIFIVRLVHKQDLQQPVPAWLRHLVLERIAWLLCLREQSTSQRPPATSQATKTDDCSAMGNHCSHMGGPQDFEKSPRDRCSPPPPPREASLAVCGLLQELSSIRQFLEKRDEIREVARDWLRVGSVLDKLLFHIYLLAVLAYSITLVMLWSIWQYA

[6] = biological target: 5-hydroxytryptamine receptor 7 (Homo sapiens) (UniProt P34969); assay: 5-HT7 Eurofins-Cerep binding assay; design: ligand concentration 4 nM; conditions: filed as agonist, Compound concentration 10.0 uM
5-hydroxytryptamine receptor 7 (Homo sapiens), sequence (P34969 whole entry): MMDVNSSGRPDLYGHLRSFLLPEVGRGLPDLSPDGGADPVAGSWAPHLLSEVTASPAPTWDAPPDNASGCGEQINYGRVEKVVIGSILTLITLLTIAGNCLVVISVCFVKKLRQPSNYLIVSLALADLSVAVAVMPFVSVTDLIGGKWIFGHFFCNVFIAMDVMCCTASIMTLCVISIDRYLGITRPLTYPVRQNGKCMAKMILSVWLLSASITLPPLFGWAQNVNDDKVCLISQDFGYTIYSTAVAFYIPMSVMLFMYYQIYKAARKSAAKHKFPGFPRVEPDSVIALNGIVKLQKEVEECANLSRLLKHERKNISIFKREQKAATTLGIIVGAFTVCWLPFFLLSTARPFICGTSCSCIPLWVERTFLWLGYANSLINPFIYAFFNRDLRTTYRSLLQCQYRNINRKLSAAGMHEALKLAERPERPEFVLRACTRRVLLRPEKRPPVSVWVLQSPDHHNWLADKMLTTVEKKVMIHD

[7] = biological target: Sodium-dependent dopamine transporter (Homo sapiens) (UniProt Q01959); assay: dopamine transporter Eurofins-Cerep binding assay; conditions: filed as antagonist, Compound concentration 10.0 uM
Sodium-dependent dopamine transporter (Homo sapiens), sequence (Q01959 whole entry): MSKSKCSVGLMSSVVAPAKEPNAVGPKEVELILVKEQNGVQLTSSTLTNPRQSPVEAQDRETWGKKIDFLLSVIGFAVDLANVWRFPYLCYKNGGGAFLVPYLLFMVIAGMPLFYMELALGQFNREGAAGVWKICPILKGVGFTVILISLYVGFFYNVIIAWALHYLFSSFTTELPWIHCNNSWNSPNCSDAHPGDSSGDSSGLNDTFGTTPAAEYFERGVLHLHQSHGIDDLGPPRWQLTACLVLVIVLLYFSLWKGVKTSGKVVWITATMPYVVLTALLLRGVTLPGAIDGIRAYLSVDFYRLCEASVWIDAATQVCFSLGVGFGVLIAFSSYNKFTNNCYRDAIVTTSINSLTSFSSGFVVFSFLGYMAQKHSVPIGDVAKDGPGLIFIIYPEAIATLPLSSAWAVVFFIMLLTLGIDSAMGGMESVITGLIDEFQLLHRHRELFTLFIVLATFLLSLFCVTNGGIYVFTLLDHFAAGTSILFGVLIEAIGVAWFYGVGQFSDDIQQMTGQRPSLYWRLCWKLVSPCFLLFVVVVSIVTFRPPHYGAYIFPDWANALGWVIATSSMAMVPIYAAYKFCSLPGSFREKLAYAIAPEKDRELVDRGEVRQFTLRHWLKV

[8] = biological target: Vasopressin V1a receptor (Homo sapiens) (UniProt P37288); assay: V1a Eurofins-Cerep binding assay; design: ligand concentration 0.3 nM; conditions: filed as agonist, Compound concentration 10.0 uM
[9] = biological target: Galanin receptor type 2 (Homo sapiens) (UniProt O43603); assay: GAL2 Eurofins-Cerep binding assay; design: ligand concentration 0.05 nM; conditions: filed as agonist, Compound concentration 10.0 uM
Galanin receptor type 2 (Homo sapiens), sequence (O43603 whole entry): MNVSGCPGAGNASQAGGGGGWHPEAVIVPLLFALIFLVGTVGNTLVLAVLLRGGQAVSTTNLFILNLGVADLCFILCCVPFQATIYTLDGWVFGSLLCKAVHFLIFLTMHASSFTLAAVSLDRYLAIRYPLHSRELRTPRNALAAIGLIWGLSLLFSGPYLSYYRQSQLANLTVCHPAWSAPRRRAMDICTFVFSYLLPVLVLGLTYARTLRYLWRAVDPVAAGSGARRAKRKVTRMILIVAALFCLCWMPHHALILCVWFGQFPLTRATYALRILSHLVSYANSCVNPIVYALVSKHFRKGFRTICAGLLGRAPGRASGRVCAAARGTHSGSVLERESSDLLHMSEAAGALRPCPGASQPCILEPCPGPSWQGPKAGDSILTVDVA

[10] = biological target: High affinity cAMP-specific and IBMX-insensitive 3',5'-cyclic phosphodiesterase 8A (Homo sapiens, UniProt O60658); assay: IC50 of hPDE8A1 in the PDE screen at 1.0 µM
[11] = biological target: Beta-1 adrenergic receptor (Homo sapiens) (UniProt P08588); assay: beta 1 Eurofins-Cerep binding assay; design: ligand concentration 0.3 nM; conditions: filed as agonist, Compound concentration 10.0 uM
[12] = biological target: 5-hydroxytryptamine receptor 1A (Homo sapiens) (UniProt P08908); assay: 5-HT1A Eurofins-Cerep binding assay; design: ligand concentration 0.5 nM; conditions: filed as agonist, Compound concentration 10.0 uM
[13] = biological target: Adenosine receptor A3 (Homo sapiens) (UniProt P0DMS8); assay: A3 Eurofins-Cerep binding assay; design: ligand concentration 0.15 nM; conditions: filed as agonist, Compound concentration 10.0 uM
Adenosine receptor A3 (Homo sapiens), sequence (P0DMS8 whole entry): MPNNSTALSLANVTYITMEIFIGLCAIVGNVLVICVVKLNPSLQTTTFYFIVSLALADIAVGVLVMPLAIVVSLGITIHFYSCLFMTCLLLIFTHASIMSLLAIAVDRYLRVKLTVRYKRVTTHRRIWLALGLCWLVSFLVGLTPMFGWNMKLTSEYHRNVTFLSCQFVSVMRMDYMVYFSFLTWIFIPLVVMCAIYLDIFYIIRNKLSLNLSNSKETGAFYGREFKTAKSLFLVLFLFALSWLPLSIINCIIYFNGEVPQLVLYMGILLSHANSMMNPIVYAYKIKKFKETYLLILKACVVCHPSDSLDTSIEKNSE

[14] = biological target: Muscarinic acetylcholine receptor M3 (Homo sapiens) (UniProt P20309); assay: M3 Eurofins-Cerep binding assay; design: ligand concentration 0.2 nM; conditions: filed as antagonist, Compound concentration 10.0 uM
Muscarinic acetylcholine receptor M3 (Homo sapiens), sequence (P20309 whole entry, looked up): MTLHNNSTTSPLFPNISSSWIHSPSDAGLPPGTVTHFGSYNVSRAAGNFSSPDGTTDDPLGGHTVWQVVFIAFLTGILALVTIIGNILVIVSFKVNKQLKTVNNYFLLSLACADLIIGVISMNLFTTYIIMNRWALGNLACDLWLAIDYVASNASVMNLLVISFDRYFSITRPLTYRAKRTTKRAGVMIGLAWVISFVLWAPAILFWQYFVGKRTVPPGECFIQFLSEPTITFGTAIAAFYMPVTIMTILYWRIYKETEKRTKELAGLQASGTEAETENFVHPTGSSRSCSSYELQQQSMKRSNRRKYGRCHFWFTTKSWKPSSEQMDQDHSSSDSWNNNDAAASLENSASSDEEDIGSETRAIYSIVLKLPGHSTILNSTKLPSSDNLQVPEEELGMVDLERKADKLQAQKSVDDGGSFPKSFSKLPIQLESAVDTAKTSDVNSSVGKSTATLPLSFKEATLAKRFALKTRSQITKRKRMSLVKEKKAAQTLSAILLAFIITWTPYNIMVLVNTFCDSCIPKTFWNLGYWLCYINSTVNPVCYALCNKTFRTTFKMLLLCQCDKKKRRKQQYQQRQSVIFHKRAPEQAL

[15] = biological target: Neuropeptide Y receptor type 1 (Homo sapiens) (UniProt P25929); assay: Y1 Eurofins-Cerep binding assay; design: ligand concentration 0.025 nM; conditions: filed as agonist, Compound concentration 10.0 uM
Neuropeptide Y receptor type 1 (Homo sapiens), sequence (P25929 whole entry): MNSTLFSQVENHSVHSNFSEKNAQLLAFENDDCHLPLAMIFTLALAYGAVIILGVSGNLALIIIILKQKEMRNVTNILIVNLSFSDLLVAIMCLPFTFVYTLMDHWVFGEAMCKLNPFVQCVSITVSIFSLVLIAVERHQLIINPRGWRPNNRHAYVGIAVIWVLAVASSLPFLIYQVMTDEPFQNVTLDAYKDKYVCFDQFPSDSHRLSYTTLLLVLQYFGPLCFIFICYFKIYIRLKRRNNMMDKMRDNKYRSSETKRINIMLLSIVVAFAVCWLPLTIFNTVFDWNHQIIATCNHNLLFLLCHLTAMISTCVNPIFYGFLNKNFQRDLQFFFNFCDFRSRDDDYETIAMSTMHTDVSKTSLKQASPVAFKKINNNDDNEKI

[16] = biological target: GABA-A receptor; anion channel (Rattus norvegicus) (UniProt O09028+P15431+P18506+P18508+P19969+P20236+P23574+P23576+P28471+P28473+P30191+P62813+P63079+P63138+Q91ZM7+Q9ES14); assay: GABA (non-selective) Eurofins-Cerep binding assay; assay type: protein-complex assay; design: ligand concentration 10 nM; conditions: filed as agonist, Compound concentration 10.0 uM
[17] = biological target: Type-1 angiotensin II receptor (Homo sapiens) (UniProt P30556); assay: AT1 Eurofins-Cerep binding assay; conditions: filed as antagonist, Compound concentration 10.0 uM
[18] = biological target: Substance-K receptor (Homo sapiens) (UniProt P21452); assay: NK2 Eurofins-Cerep binding assay; design: ligand concentration 0.1 nM; conditions: filed as agonist, Compound concentration 10.0 uM
Substance-K receptor (Homo sapiens), sequence (P21452 whole entry): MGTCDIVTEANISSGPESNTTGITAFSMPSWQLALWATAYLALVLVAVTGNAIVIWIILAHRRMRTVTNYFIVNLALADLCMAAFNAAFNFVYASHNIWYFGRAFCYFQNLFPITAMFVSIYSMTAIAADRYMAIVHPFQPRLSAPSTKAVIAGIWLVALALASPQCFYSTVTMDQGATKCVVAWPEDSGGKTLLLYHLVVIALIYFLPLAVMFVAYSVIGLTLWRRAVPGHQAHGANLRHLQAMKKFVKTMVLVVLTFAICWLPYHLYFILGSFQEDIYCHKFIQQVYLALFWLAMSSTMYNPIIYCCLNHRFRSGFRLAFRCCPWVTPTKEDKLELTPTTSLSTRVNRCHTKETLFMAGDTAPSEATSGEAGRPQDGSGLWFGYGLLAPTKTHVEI

[19] = biological target: D(1A) dopamine receptor (Homo sapiens) (UniProt P21728); assay: D1 Eurofins-Cerep binding assay; design: ligand concentration 0.3 nM; conditions: filed as antagonist, Compound concentration 10.0 uM
Rattus norvegicus [20] = species: Rattus norvegicus; assay: SKCa channel Eurofins-Cerep binding assay; assay type: protein assay; design: ligand concentration 0.007 nM; conditions: filed as antagonist, Compound concentration 10.0 uM
[21] = biological target: 5-hydroxytryptamine receptor 2A (Homo sapiens) (UniProt P28223); assay: 5-HT2A Eurofins-Cerep binding assay; design: ligand concentration 0.5 nM; conditions: filed as antagonist, Compound concentration 10.0 uM
Rattus norvegicus [22] = species: Rattus norvegicus; assay: Cl-channel (GABA-gated) Eurofins-Cerep binding assay; design: ligand concentration 3 nM; conditions: filed as antagonist, Compound concentration 10.0 uM
[23] = IC50 of bovine retina PDE6 in the PDE screen at 1.0 µM; design: species or system Bos taurus
[24] = biological target: C-C chemokine receptor type 1 (Homo sapiens) (UniProt P32246); assay: CCR1 Eurofins-Cerep binding assay; design: ligand concentration 0.01 nM; conditions: filed as agonist, Compound concentration 10.0 uM
[25] = biological target: Melatonin receptor type 1A (Homo sapiens) (UniProt P48039); assay: MT1 (ML1A) Eurofins-Cerep binding assay; design: ligand concentration 0.01 nM; conditions: filed as agonist, Compound concentration 10.0 uM
[26] = biological target: Histamine H1 receptor (Homo sapiens) (UniProt P35367); assay: H1 Eurofins-Cerep binding assay; design: ligand concentration 1 nM; conditions: filed as antagonist, Compound concentration 10.0 uM
Histamine H1 receptor (Homo sapiens), sequence (P35367 whole entry): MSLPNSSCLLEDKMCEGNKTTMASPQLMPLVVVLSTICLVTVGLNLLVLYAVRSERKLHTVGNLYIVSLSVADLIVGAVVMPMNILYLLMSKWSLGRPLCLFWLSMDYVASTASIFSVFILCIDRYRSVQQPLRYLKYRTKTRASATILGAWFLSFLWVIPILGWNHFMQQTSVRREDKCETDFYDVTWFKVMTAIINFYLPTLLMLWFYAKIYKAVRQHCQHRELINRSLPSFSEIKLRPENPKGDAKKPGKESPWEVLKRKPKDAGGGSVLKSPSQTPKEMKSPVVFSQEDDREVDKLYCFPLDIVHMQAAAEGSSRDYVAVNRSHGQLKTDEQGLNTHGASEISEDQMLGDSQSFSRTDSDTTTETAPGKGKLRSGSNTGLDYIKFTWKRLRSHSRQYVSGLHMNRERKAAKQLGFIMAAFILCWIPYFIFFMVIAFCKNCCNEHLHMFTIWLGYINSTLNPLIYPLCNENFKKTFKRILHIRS

Rattus norvegicus [27] = species: Rattus norvegicus; assay: alpha 2 (non-selective) Eurofins-Cerep binding assay; assay type: protein assay; design: ligand concentration 1 nM; conditions: filed as antagonist, Compound concentration 10.0 uM
[28] = biological target: cGMP-dependent 3',5'-cyclic phosphodiesterase (Rattus norvegicus) (UniProt Q01062); assay: Target occupancy in striatum ( p.o.dose, 1 h); assay type: organism-based
[29] = biological target: Melanocortin receptor 4 (Homo sapiens) (UniProt P32245); assay: MC4 Eurofins-Cerep binding assay; design: ligand concentration 0.05 nM; conditions: filed as agonist, Compound concentration 10.0 uM
Melanocortin receptor 4 (Homo sapiens), sequence (P32245 whole entry): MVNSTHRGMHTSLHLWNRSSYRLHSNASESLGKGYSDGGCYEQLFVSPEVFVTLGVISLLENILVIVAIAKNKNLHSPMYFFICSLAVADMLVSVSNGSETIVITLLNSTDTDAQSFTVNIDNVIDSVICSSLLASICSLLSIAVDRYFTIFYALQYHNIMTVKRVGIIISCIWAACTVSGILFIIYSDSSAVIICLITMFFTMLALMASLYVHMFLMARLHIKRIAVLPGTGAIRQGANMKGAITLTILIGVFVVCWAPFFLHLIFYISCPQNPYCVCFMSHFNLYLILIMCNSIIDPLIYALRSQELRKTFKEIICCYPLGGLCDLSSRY

[30] = biological target: 3',5'-cyclic-AMP phosphodiesterase 4D (Homo sapiens, UniProt Q08499); assay: IC50 of hPDE4D3 in the PDE screen at 1.0 µM
[31] = biological target: Adenosine receptor A2a (Homo sapiens) (UniProt P29274); assay: A2A Eurofins-Cerep binding assay; design: ligand concentration 6 nM; conditions: filed as agonist, Compound concentration 10.0 uM
[32] = biological target: Mu-type opioid receptor (Homo sapiens) (UniProt P35372); assay: mu (MOP) Eurofins-Cerep binding assay; design: ligand concentration 0.5 nM; conditions: filed as agonist, Compound concentration 10.0 uM

Cc1cc(C(=O)N2CC[C@@H](C)[C@H](c3cc(C(F)F)nc4ncnn34)C2)cc(C)n1
residual activity [1]: 111% | residual activity [2]: 111% | residual activity [3]: 95.3% | residual activity (Rattus norvegicus [4]): 93.6% | residual activity [5]: 103% | residual activity [6]: 105% | residual activity [7]: 108% | residual activity [8]: 97.3% | residual activity [9]: 94% | IC50 [10]: > 10 µM (not active) | residual activity [11]: 96.8% | residual activity [12]: 99% | residual activity [13]: 104% | residual activity [14]: 103% | residual activity [15]: 108% | residual activity [16]: 100% | residual activity [17]: 104% | residual activity [18]: 102% | residual activity [19]: 99.2% | residual activity (Rattus norvegicus [20]): 101% | residual activity [21]: 108% | residual activity (Rattus norvegicus [22]): 102% | IC50 [23]: > 10 µM (not active) | residual activity [24]: 89.6% | residual activity [25]: 109% | residual activity [26]: 106% | residual activity (Rattus norvegicus [27]): 104% | ED50 [28]: 5.3 mg/kg | residual activity [29]: 111% | IC50 [30]: > 10 µM (not active) | residual activity [31]: 55.1% | residual activity [32]: 96%
